This data set in a line: pH of the stabilizer (additive) in water/ethanol mixture, measured by pH meter MM-60R (TOA DKK). Conditions: 5 mg/mL in water/EtOH=1:1 mixture.

Method: The pH of the (B) component can be measured by preparing 50% (v/v) ethanol aqueous solution containing 5 mg/mL of the (B) component, and measuring pH using commercially available pH meter. For example, pH can be measured by using MM-60R (TOA DKK).

For `O=C([O-])CC(O)(CC(=O)[O-])C(=O)O.[Na+].[Na+]` [disodium hydrogen citrate], the “pH of the additive used as stabilizer” value was found to be 6.3. Regarding `O=C1O[C@H]([C@@H](O)CO)C([O-])=C1O.[Na+]` [sodium ascorbate], the “pH of the additive used as stabilizer” value amounted to 8.4.

Values taken from patent US20190022073A1, “PHARMACEUTICAL COMPOSITION COMPRISING RAPAMYCIN OR DERIVATIVE THEREOF” (NIPPON KAYAKU KABUSHIKI KAISHA, priority 2015, published 2019).
